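Test compounds were applied to cells in 96-well plates for 48 hours at 5 doses. At the GI50, growth is halved. TGI: total growth inhibition.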

The record followed here is PubChem BioAssay (NCI).

Among the test systems are SF-539 CNS; SK-MEL-5 melanoma; HL-60(TB) leukemia; OVCAR-8 ovarian; CAKI-1 renal; MDA-MB-435; CCRF-CEM leukemia; SN12C renal; T-47D breast; NCI-H460 lung.
Common to all, as to test: NCI tumour cell line growth inhibition, 48 h

Regarding `Clc1ccccc1[C@@H]1C[C@@H]2Cc3cc(Br)c4ccccc4c3N1O2`, the GI50 in the assay on SF-539 CNS was 3.04 µM; with SK-MEL-5 melanoma, 2.81 µM; with HL-60(TB) leukemia, 4.4 µM; with OVCAR-8 ovarian it was 5.45 µM; in the assay with CAKI-1 renal, 4.18 µM; with MDA-MB-435, 2.08 µM. Moreover, the GI50 was 4.87 µM with CCRF-CEM leukemia, 8.71 µM in the assay with SN12C renal, 4.26 µM in the assay with T-47D breast and 4.08 µM in the assay with NCI-H460 lung. The TGI was above 100 µM in the assay with SF-539 CNS; 15.2 µM with SK-MEL-5 melanoma; above 100 µM in the assay with HL-60(TB) leukemia; above 100 µM in the assay with OVCAR-8 ovarian; above 100 µM in the assay on CAKI-1 renal; 20.4 µM in the assay on MDA-MB-435. Also, the TGI in the assay on CCRF-CEM leukemia, with SN12C renal, in the assay with T-47D breast and with NCI-H460 lung was above 100 µM throughout.
On to `Cc1ccc(-c2c(C#N)[n+](=O)c3cc(F)c(F)cc3n2[O-])cc1`, for which the GI50 with SF-539 CNS was 15.3 µM; in the assay with SK-MEL-5 melanoma, 14.2 µM; with OVCAR-8 ovarian, 20.8 µM; in the assay with CAKI-1 renal, 2.48 µM; in the assay on MDA-MB-435, 2.27 µM; in the assay with CCRF-CEM leukemia, 1.6 µM. Besides, the GI50 in the assay with SN12C renal was 2.61 µM; in the assay on T-47D breast, 28.4 µM; with NCI-H460 lung it was 12.2 µM. For the same compound, the TGI in the assay with SF-539 CNS came out at 33.9 µM; with SK-MEL-5 melanoma, 28.1 µM; with OVCAR-8 ovarian, 40.3 µM; in the assay with CAKI-1 renal, 5.74 µM; in the assay with MDA-MB-435 it was 5.95 µM; in the assay with CCRF-CEM leukemia, 4.41 µM. Further, the TGI in the assay with SN12C renal amounted to 8.56 µM; in the assay on T-47D breast, 67.5 µM; in the assay with NCI-H460 lung, 30.3 µM.
With `COc1cccc(OC(=O)c2ccc(C(F)(F)F)nc2Nc2c(C)cccc2Cl)c1`, the GI50 was 23.4 µM in the assay with SF-539 CNS; 33.3 µM in the assay with SK-MEL-5 melanoma; 19.5 µM in the assay with OVCAR-8 ovarian; 16.3 µM in the assay with CAKI-1 renal; 35 µM in the assay with MDA-MB-435; 25.6 µM in the assay on CCRF-CEM leukemia. The GI50 in the assay on SN12C renal was 21.4 µM; in the assay with T-47D breast, 18.7 µM; in the assay with NCI-H460 lung it was 26.4 µM. Moreover, the TGI in the assay with SF-539 CNS was 70.4 µM; in the assay on SK-MEL-5 melanoma, above 100 µM; in the assay on OVCAR-8 ovarian, 46.3 µM; in the assay on CAKI-1 renal, 48.8 µM; with MDA-MB-435, above 100 µM; in the assay on CCRF-CEM leukemia, 78.9 µM. Besides, the TGI in the assay on SN12C renal is 64.3 µM; with T-47D breast it was above 100 µM; in the assay with NCI-H460 lung, above 100 µM.
Consider `c1ccc2cc(Cn3cc[n+](Cc4ccc5ccccc5c4)c3)ccc2c1`, for which the GI50 was 1.98 µM in the assay with SF-539 CNS; 0.258 µM with SK-MEL-5 melanoma; 0.264 µM in the assay with HL-60(TB) leukemia; 1.64 µM in the assay with OVCAR-8 ovarian; 0.543 µM in the assay with MDA-MB-435; 1.61 µM in the assay on CCRF-CEM leukemia. For the same compound, the GI50 is 0.846 µM in the assay on SN12C renal, 0.385 µM with T-47D breast and 1.27 µM in the assay with NCI-H460 lung. Further, the TGI with SF-539 CNS worked out at 9.27 µM; in the assay on SK-MEL-5 melanoma, 0.916 µM; in the assay on HL-60(TB) leukemia it was 1.35 µM; in the assay on OVCAR-8 ovarian, 12.3 µM; with MDA-MB-435, 2.29 µM; in the assay with CCRF-CEM leukemia, 11 µM. Besides, the TGI with SN12C renal was 7.03 µM; in the assay with T-47D breast, 5.24 µM; in the assay with NCI-H460 lung it was 10.4 µM.
`O=C1OCC(c2ccc(O)cc2)=C1c1cc(O)c(O)c(O)c1`: the GI50 was above 100 µM in the assay with SF-539 CNS; above 100 µM in the assay on SK-MEL-5 melanoma; above 100 µM with OVCAR-8 ovarian; 43.2 µM in the assay with CAKI-1 renal; 26.4 µM in the assay on MDA-MB-435; 51.7 µM in the assay with CCRF-CEM leukemia. In addition, the GI50 with SN12C renal is 54 µM; in the assay with T-47D breast, above 100 µM; in the assay on NCI-H460 lung, above 100 µM. Moreover, the TGI with SF-539 CNS is above 100 µM; in the assay on SK-MEL-5 melanoma it was above 100 µM; with OVCAR-8 ovarian it was above 100 µM; in the assay on CAKI-1 renal, 89.6 µM; with MDA-MB-435, 53.8 µM; in the assay with CCRF-CEM leukemia, above 100 µM. In addition, the TGI with SN12C renal, with T-47D breast and in the assay with NCI-H460 lung was above 100 µM throughout.
As to `O=C(O)/C=C/c1ccc[c]([Sb](=[O])([OH])[OH])c1`, the GI50 in the assay on SK-MEL-5 melanoma, with HL-60(TB) leukemia, with OVCAR-8 ovarian, in the assay on CAKI-1 renal, in the assay on MDA-MB-435 and with SN12C renal was above 100 µM each time. The GI50 in the assay with T-47D breast and in the assay on NCI-H460 lung was above 100 µM each time. Further, the TGI in the assay on SK-MEL-5 melanoma, in the assay on HL-60(TB) leukemia, with OVCAR-8 ovarian, with CAKI-1 renal, in the assay on MDA-MB-435 and with SN12C renal was above 100 µM throughout. Also, the TGI in the assay on T-47D breast and in the assay with NCI-H460 lung was above 100 µM in each case.
Turning to `CC/C=C\C[C@H](O)C/C=C1/C(=O)C=C[C@@H]1C/C=C\CCCC(=O)OC(C)C`, the GI50 is 1.17 µM with SK-MEL-5 melanoma; 0.824 µM with HL-60(TB) leukemia; 2.8 µM in the assay on OVCAR-8 ovarian; 2.51 µM in the assay on CAKI-1 renal; 0.572 µM with MDA-MB-435; 0.425 µM in the assay with CCRF-CEM leukemia. Moreover, the GI50 in the assay with SN12C renal was 2.42 µM; with T-47D breast, 1.37 µM; in the assay with NCI-H460 lung it was 1.68 µM. Also, the TGI in the assay with SK-MEL-5 melanoma is 2.51 µM; in the assay on HL-60(TB) leukemia, 6.71 µM; with OVCAR-8 ovarian, 8.38 µM; in the assay with CAKI-1 renal, 10.3 µM; with MDA-MB-435, 2.7 µM; in the assay on CCRF-CEM leukemia, 2.53 µM. Also, the values for the TGI in the assay with SN12C renal, with T-47D breast and with NCI-H460 lung were 6.35 µM, 7 µM and 3.97 µM, respectively.
Consider `C=C1C(=O)O[C@H]2[C@H]1CC/C(COC(=O)c1cn(C)c3ccccc13)=C\CC[C@@]1(C)O[C@@H]21`, for which the GI50 in the assay on SF-539 CNS is 0.741 µM; in the assay with SK-MEL-5 melanoma, 1.42 µM; in the assay on HL-60(TB) leukemia it was 1.54 µM; in the assay with OVCAR-8 ovarian, 0.8 µM; in the assay on MDA-MB-435, 1.34 µM; in the assay on CCRF-CEM leukemia, 0.217 µM. Moreover, the GI50 with SN12C renal is 0.719 µM; in the assay on T-47D breast, 1.19 µM; in the assay with NCI-H460 lung it was 1.73 µM. The TGI was 2.13 µM in the assay with SF-539 CNS; 2.77 µM in the assay with SK-MEL-5 melanoma; 4.17 µM in the assay with HL-60(TB) leukemia; 2.4 µM with OVCAR-8 ovarian; 3.34 µM in the assay on MDA-MB-435; 0.94 µM with CCRF-CEM leukemia. The results for the TGI with SN12C renal, in the assay with T-47D breast and in the assay on NCI-H460 lung were 2.3 µM, 3.42 µM and 3.92 µM, respectively.
